Consider 14 compounds from patent US7622491B2, “Modulators of PPAR and methods of their preparation” (Metabolex Inc., priority 2004, dated 2009).

Molecules are shown by their SMILES. Like-named read-outs stand apart in the source and are kept apart here.

Broadly, the EC50 is the concentration at which the effect is half-maximal.

Assay type in all cases: cell-based
Experiment [1] has as its target T1, mouse PPAR α (Mus musculus, UniProt P23204).
T1 construct: expressed in transfected cells; host or cells: HEK293T
T1 sequence (P23204 239-466 limits assumed): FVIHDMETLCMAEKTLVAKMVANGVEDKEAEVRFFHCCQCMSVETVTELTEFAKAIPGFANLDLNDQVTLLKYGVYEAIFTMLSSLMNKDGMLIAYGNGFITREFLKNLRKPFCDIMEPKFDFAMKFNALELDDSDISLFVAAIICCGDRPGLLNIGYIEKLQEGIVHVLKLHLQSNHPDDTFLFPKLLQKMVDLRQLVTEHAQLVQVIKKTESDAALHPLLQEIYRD
Nature of the experiment: PPAR α transactivation (GAL4 chimeric receptor luciferase reporter) assay. An excerpt: (§1) Chimeric receptors were constructed in which the yeast transcription factor GAL4 DNA binding domain was fused to the ligand binding domain of either mouse PPARγ, mouse PPAR δ or mouse PPAR α in order to assess the ability of the compounds of the present invention to activate gene expression in a PPAR-dependent manner. The chimeric receptor expression plasmids (GAL4-mPPARγ, GAL4-mPPAR δ and GAL4-PPAR α) and the reporter plasmid containing 5×GAL4 binding site (pFR-Luc, obtained from Stratagene) were transfected into HEK293T cells using the Lipofectamine 2000 reagent (Invitrogen), according to the manufacturers instructions. Six hours after transfection, the culture medium was renewed and the cells were incubated for 20 hours in presence of either 1) DMSO (vehicle), 2) a compound of the invention or 3) a reference compound for comparison. Rosiglitazone (obtained from WDF Pharma) was used as a reference compound for the PPARγ assay; GW501516 (prepared as described in Sznaidman et al. Bioorg. Med. Chem. Lett. (2003) 13:1517-1521) was used as a reference compound for the PPAR δ assay and GW7647 (obtained from Sigma) was used as a reference compound for the PPAR α assay. Luciferase activity was measured as a reporter of gene expression. Luciferase activity on the cell lysates using the Steady-Glo reagent was measured according to the manufacturers instructions.
On the technique in general: In a reporter assay the amount or activity of a reporter protein is the signal.

In experiment [2] the target is T2, mouse PPAR δ (Mus musculus, UniProt P35396).
T2 construct: expressed in transfected cells; host or cells: HEK293T
T2 sequence (P35396 210-438 limits assumed): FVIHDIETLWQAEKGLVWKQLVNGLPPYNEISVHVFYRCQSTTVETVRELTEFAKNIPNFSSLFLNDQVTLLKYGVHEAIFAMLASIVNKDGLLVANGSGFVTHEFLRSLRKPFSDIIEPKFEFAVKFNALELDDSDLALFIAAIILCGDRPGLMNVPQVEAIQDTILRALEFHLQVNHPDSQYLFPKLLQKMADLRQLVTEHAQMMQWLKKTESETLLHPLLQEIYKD
The experiment in a line: PPAR δ transactivation (GAL4 chimeric receptor luciferase reporter) assay. To be noted: GAL4-mPPAR δ chimeric receptor, pFR-Luc reporter, HEK293T cells, 20 hours incubation.
Source text: as §1

Experiment [3] addresses T3, mouse PPARγ (Mus musculus, UniProt P37238).
T3 construct: expressed in transfected cells; host or cells: HEK293T
T3 sequence (P37238 238-503 limits assumed): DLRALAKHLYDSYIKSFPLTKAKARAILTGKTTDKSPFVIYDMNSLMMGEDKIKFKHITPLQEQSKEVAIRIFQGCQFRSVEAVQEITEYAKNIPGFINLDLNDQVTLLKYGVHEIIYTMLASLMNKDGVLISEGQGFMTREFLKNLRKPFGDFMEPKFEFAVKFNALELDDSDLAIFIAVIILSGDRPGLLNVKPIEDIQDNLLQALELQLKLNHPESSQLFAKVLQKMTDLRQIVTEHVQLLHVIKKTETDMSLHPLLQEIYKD
The experiment in a line: PPARγ transactivation (GAL4 chimeric receptor luciferase reporter) assay. The note with it: GAL4-mPPARγ chimeric receptor, pFR-Luc reporter, HEK293T cells, 20 hours incubation.
Source text: as §1

Where [4] appears, read: pFR-Luc reporter, HEK293T cells, 20 hours incubation.
The mark [5] stands for this setting: read-out: Gene Activation Assay: EC50 (≦10 μM) PPAR alpha, pFR-Luc reporter, HEK293T cells, 20 hours incubation.

Take `O=C(O)Cn1ncc2cc(OCCCOc3ccc(Cl)cc3-n3nc4ccccc4n3)ccc21` [Compound 1700, {5-[3-(2-Benzotriazol-2-yl-4-chloro-phenoxy)-propoxy]-indazol-1-yl}-acetic acid]: the figures for the EC50 in experiment [1] (setting [4]), in experiment [2] and in experiment [3] were more than 30 µM, not above 10 µM and not above 10 µM, respectively.
With `CCCc1cc(CC(=O)O)ccc1OCCOc1ccc(Cl)cc1-n1nc2ccccc2n1` [Compound 900, {4-[2-(2-Benzotriazol-2-yl-4-chloro-phenoxy)-ethoxy]-3-propyl-phenyl}-acetic acid], the EC50 in experiment [1] (setting [4]) is more than 30 µM; in experiment [2] it was not above 10 µM; in experiment [3], not above 10 µM.
`CCCc1cc(CC(=O)O)ccc1OCCCOc1ccc(Cl)cc1-n1nc2ccccc2n1` [Compound 600, {4-[3-(2-Benzotriazol-2-yl-4-chloro-phenoxy)-propoxy]-3-propyl-phenyl}-acetic acid]: the EC50 in experiment [1] (setting [4]), in experiment [2] and in experiment [3] was not above 10 µM throughout.
With `O=C(O)Cc1ccc(OCCOc2ccc(Cl)cc2-n2nc3ccccc3n2)cc1` [Compound 800, {4-[2-(2-Benzotriazol-2-yl-4-chloro-phenoxy)-ethoxy]-phenyl}-acetic acid], the results for the concentration for a half-maximal effect (EC50) in experiment [1] (setting [5]), in experiment [2] and in experiment [3] were more than 10 µM, not above 10 µM and not above 10 µM, respectively.
As to `O=C(O)Cc1ccc(OCCCOc2ccc(Cl)cc2-n2nc3ccccc3n2)cc1` [Compound 500, {4-[3-(2-Benzotriazol-2-yl-4-chloro-phenoxy)-propoxy]-phenyl}-acetic acid], the EC50 in experiment [1] (setting [4]), in experiment [2] and in experiment [3] was not above 10 µM each time.
Turning to `COc1cccc(C#Cc2cc(Cl)ccc2OCCCOc2ccc(CC(=O)O)cc2)c1` [Compound 1400, (4-{3-[4-Chloro-2-(3-methoxy-phenylethynyl)-phenoxy]-propoxy}-phenyl)-acetic acid], the EC50 was more than 10 µM in experiment [1] (setting [5]), not above 10 µM in experiment [2] and not above 10 µM in experiment [3].
For `O=C(O)Cn1ccc2cc(OCCCOc3ccc(Cl)cc3-n3nc4ccccc4n3)ccc21` [Compound 1800, {5-[3-(2-Benzotriazol-2-yl-4-chloro-phenoxy)-propoxy]-indol-1-yl}-acetic acid], the figures for the 50% effective concentration (EC50) in experiment [1] (setting [5]), in experiment [2] and in experiment [3] were more than 10 µM, not above 10 µM and not above 10 µM, respectively.
For `O=C(O)Cc1ccc(OCCCOc2ccc(Cl)cc2C#Cc2ccccc2)cc1` [Compound 1300, {4-[3-(4-Chloro-2-phenylethynyl-phenoxy)-propoxy]-phenyl}-acetic acid], the EC50 in experiment [1] (setting [5]) was more than 10 µM; in experiment [2], not above 10 µM; in experiment [3], not above 10 µM.
For the compound `O=C(O)Cc1ccc(OCCCOc2ccc(Cl)cc2-n2nc3c(n2)CCCC3)cc1` [Compound 1200, (4-{3-[4-Chloro-2-(4,5,6,7-tetrahydro-benzotriazol-2-yl)-phenoxy]-propoxy}-phenyl)-acetic acid], the EC50 in experiment [1] (setting [4]), in experiment [2] and in experiment [3] was not above 10 µM throughout.
Turning to `Cc1cc(SCCOc2ccc(Cl)cc2-n2nc3ccccc3n2)ccc1OCC(=O)O` [Compound 400, {4-[2-(2-Benzotriazol-2-yl-4-chloro-phenoxy)-ethylsulfanyl]-2-methyl-phenoxy}-acetic acid], the EC50 was more than 10 µM in experiment [1] (setting [5]), not above 10 µM in experiment [2] and not above 10 µM in experiment [3].
Take `Cc1cc(SCCCOc2ccc(Br)cc2-c2nc3ccccc3o2)ccc1OCC(=O)O` [Compound 300, {4-[3-(2-Benzooxazol-2-yl-4-bromo-phenoxy)-propylsulfanyl]-2-methyl-phenoxy}-acetic acid]: the EC50 in experiment [1] (setting [4]), in experiment [2] and in experiment [3] was not above 10 µM in each case.
With `Cc1cccc2nn(-c3cc(Cl)ccc3OCCCOc3ccc(CC(=O)O)cc3)nc12` [Compound 1600, (4-{3-[4-Chloro-2-(4-methyl-benzotriazol-2-yl)-phenoxy]-propoxy}-phenyl)-acetic acid], the concentration for a half-maximal effect (EC50) in experiment [1] (setting [4]), in experiment [2] and in experiment [3] was not above 10 µM each time.
As to `O=C(O)Cc1ccc(OCCCOc2ccc(Cl)cc2C#Cc2ccccn2)cc1` [Compound 1500, {4-[3-(4-Chloro-2-pyridin-2-ylethynyl-phenoxy)-propoxy]-phenyl}-acetic acid], the results for the EC50 in experiment [1] (setting [5]), in experiment [2] and in experiment [3] were more than 10 µM, not above 10 µM and not above 10 µM, respectively.
Turning to `O=C(O)Cn1ccc2cc(OCCOc3ccc(Cl)cc3-n3nc4ccccc4n3)ccc21` [Compound 1900, {5-[2-(2-Benzotriazol-2-yl-4-chloro-phenoxy)-ethoxy]-indol-1-yl}-acetic acid], the EC50 in experiment [1] (setting [5]) was more than 10 µM; in experiment [2] it was not above 10 µM; in experiment [3] it was not above 10 µM.
